Measurements from patent US11364242B2, “Treatment agents for inhibiting HIV and cancer in HIV infected patients” (UNIVERSITY OF MARYLAND, BALTIMORE, priority 2015, dated 2022).
Read-outs that look alike come from different tables or passages of the source.

How the values were obtained:
[1] = tested on: full-length unspliced HIV mRNA; assay: RT-PCR of unspliced HIV mRNA in U1 cells; type: cell-based; details: 10 nM PMA, 2 days
Procedure: FIG. 6 is a bar graph that depicts how INK128 inhibits HIV transcription in U1 cells. U1 cells were cultured in the presence of 10 nM PMA and the indicated concentrations of INK128. After 2 days, cells were collected, mRNA isolated, quantified, reverse transcribed and amplified by real time PCR using unspliced HIV cDNA primer pair US.1a/US.2a and housekeeping [beta]-actin primers. For quantification, standard curves for unspliced HIV cDNA and [beta]-actin sequences were generated by performing 10-fold serial dilutions of mRNA isolated from PBLs acutely infected with HIV BaL. PCR amplification was performed using Quantitect® SYBR Green PCR Kit in a LightCycler®. Negative controls consisted of mixture reactions without the reverse transcription step according to an embodiment.
Total cellular RNA was isolated using the Qiagen™ RNA Isolation Kit (Qiagen™) RNA was then treated with DNase I, Amplification Grade (Invitrogen™), and reverse transcribed with SuperScript III First-Strand Synthesis Supermix™ (Invitrogen™) using hexamer primers. An aliquot of the cDNA was used as a template for PCR amplification of full length, unspliced HIV cDNA using primers US.1a and US.2a, and another aliquot for amplification with primer pairs specific for housekeeping [beta]-actin sequences (63).
The effects of INK128 on activation of HIV in the chronically HIV-infected U1 cell line were examined. […]

CD4 = assay: Flow cytometry quantitation of surface receptor on PBLs; details: IL-2, 7 days, three donors
[2] = tested on: R5 and X4 HIV, laboratory-adapted and primary isolates; assay: Infectivity assays in primary PBLs, summary over strains; type: cell-based
Procedure: PBLs were separated from buffy coats by density centrifugation over Ficoll-Hypaque (Sigma™), and activated by culture in the presence of 1 μg/mL anti-human CD3 antibody (clone x35, Fisher Scientific™) and 2 μg/mL anti-human CD28 antibody (Clone CD28.6, eBioscience™) for 3 days. Activated cells were infected by incubation with virus at a multiplicity of infection (MOI) of 0.001 for 2 hours. Infected cells were washed three times with PBS and cultured in 5% CO2 at 37° C., in RPMI/10% FBS supplemented with 100 units/mL IL-2 (Roche™) and antiviral drugs, in 96-well flat-bottom plates at a density of […] PBLs per 200 μL. Following 3 d of culture, half of the medium was replaced with fresh medium containing IL-2 and antiviral drugs. On day 7, viral replication was measured by p24 ELISA (Coulter) in culture supernatants and cell viability was measured by MTT assays.
The antiviral activity of INK128 was investigated in PBLs infected with CCR5 (R5)-tropic and CXCR4 (X4)-tropic HIV reference strains BaL and HXB2, respectively.

[3] = tested on: chronically HIV-infected U1 cell line; assay: HIV activation in chronically infected U1 cells, p24 ELISA; type: cell-based; details: INK128 <10 nM, day 3
Procedure: FIG. 5A-5C are bar graphs that illustrate INK128's inhibition of HIV activation in chronically infected cells. Latently HIV infected U1 cells were cultured in the presence of various concentrations of INK128 for 1 hour. Cultures were then untreated (FIG. 5A), or treated with HIV inducers PMA (FIG. 5B) and Tat protein (FIG. 5C). HIV production was measured by p24 ELISA in the culture supernatants on day 3 according to an embodiment.
The effects of INK128 on activation of HIV in the chronically HIV-infected U1 cell line were examined. The U1 cell line carries two copies of the HIV provirus per cell (33). Under basal conditions, U1 cells express low levels of HIV, but HIV expression is enhanced by stimulation with the phorbol ester PMA or by exogenous addition of Tat (34, 35). U1 cells were cultured in the presence of INK128 in the absence and presence of 10 nM PMA or 1 μg/mL Tat. […] As expected, unstimulated U1 cells produced low levels of HIV p24, but production was increased by addition of PMA or Tat.

CXCR4 = assay: Flow cytometry quantitation of surface receptor on PBLs; details: IL-2, 7 days, three donors
R5 HIV (JRFL) = assay: Real-time PCR of early reverse transcription products and integrated HIV DNA in infected PBLs; type: cell-based; details: 72 hours, PBLs from two donors
Procedure: (§1) Activated PBLs were infected with R5 and X4 HIV strains using a MOI of 0.01. Infected cells were cultured in the presence of IL-2 and different concentrations of INK128. Cell aliquots were collected at 16 and 72 hours for analyses of early products of reverse transcription and of integration, respectively, by real time PCR. Detection of early products of reverse transcription was done with primers specific for the R/U5 region (60). For detection of integrated HIV DNA, a real-time nested Alu-HIV PCR assay was used as previously described (61, 62), with the modifications described herein.
DNA was isolated using Miniblood kit (Qiagen™). PCR amplification was performed using Quantitect SYBR Green™ PCR Kit (Qiagen™) in a LightCycler™ (Biorad™). Detection of early products of reverse transcription was done in reactions containing 100 ng of DNA and the primer pair 5′-[…]-3′ (SEQ ID NO. 1) and 5′-[…]-3′ (SEQ ID NO. 2) (R/U5 region) (60). […] Amplified products were analyzed by denaturation/renaturation to verify the specific Tm. The PCR cycle at which the signal entered the exponential range was used for quantification, and HIV copy numbers were corrected for those of α-tubulin. […] As a standard curve for relative quantification of integrated DNA, the Alu-gag was first run using serial dilutions of DNA isolated from HIV infected PBLs (diluted in HIV-negative DNA). […]

X4 HIV (HXB2) = assay: as above; type: cell-based; details: PBLs from two donors
Procedure: as §1
DNA was isolated using Miniblood kit (Qiagen™). PCR amplification was performed using Quantitect SYBR Green™ PCR Kit (Qiagen™) in a LightCycler™ (Biorad™). Detection of early products of reverse transcription was done in reactions containing 100 ng of DNA and the primer pair 5′-[…]-3′ (SEQ ID NO. 1) and 5′-[…]-3′ (SEQ ID NO. 2) (R/U5 region) (60). […] Amplified products were analyzed by denaturation/renaturation to verify the specific Tm. The PCR cycle at which the signal entered the exponential range was used for quantification, and HIV copy numbers were corrected for those of α-tubulin. […] As a standard curve for relative quantification of integrated DNA, the Alu-gag was first run using serial dilutions of DNA isolated from HIV infected PBLs (diluted in HIV-negative DNA).

U1 cells = assay: U1 cell proliferation (optimization experiments); type: cell-based; details: concentrations higher than 10 nM

Q: How did the “synthesis of full-length unspliced HIV mRNA” value [1] turn out when `CC(C)n1nc(-c2ccc3oc(N)nc3c2)c2c(N)ncnc21` [INK128, 5-(4-amino-1-propan-2-ylpyrazolo[3,4-d]pyrimidin-3-yl)-1,3-benzoxazol-2-amine] was run?
A: inhibits synthesis

Q: And the CD4 receptor levels (CD4)?
A: did not impact

Q: And the EC50 ([2]; Human immunodeficiency virus 1, Lymphocyte, both R5 and X4 HIV in primary lymphocytes)?
A: < 50 nM

Q: And the EC50 ([2]; Human immunodeficiency virus 1, read-out: EC50s ranging, R5 primary isolates, three donors)?
A: 2.9 to 10.1 nM

Q: What about the EC50 ([2]; Human immunodeficiency virus 1, read-out: EC50s ranging, X4 primary isolates, three donors) of the same molecule?
A: 17.5 to 36.7 nM

Q: What about the p24 production ([3]; U1 cells treated with 10 nM PMA) of the same molecule?
A: inhibited p24 production

Q: What about the p24 production ([3]; U1 cells treated with 1 μg/mL Tat) of the same molecule?
A: inhibited p24 production

Q: And the p24 production ([3]; untreated U1 cells)?
A: inhibited p24 production

Q: And the “CXCR4 levels (percentage or density)” value (CXCR4)?
A: did not change

Q: What about the integrated provirus (R5 HIV (JRFL)) of the same molecule?
A: decreased levels

Q: What about the R/U5 transcripts (X4 HIV (HXB2); 16 hours) of the same molecule?
A: did not decrease

Q: And the integrated provirus (X4 HIV (HXB2); 72 hours)?
A: did not decrease

Q: What about the “cell proliferation of U1 cells” value (U1 cells) of the same molecule?
A: inhibition of cell proliferation
